What all share (type): cell-based, human
The test system of test [1] is RKO p53+/+ or p53−/− cells. Briefly: Determination of p53 status dependency. The settings on record: RKO p53+/+ vs p53−/−, 72 hours, viable cell numbers. As for the experimental part:
(§1) The isogenic colon carcinoma cells lines HCT116 p53+/+ or p53−/− and RKO p53+/+ or p53−/− were cultured in 12-well plates. After a recovery period of 24 hours, NVX-412 or Nutlin-3 was added in fresh growth medium at the indicated concentrations. […] After 24 or 72 hours cell numbers were determined with a Beckman Coulter ViCell XR.

The test system of test [2] is HCT116 p53+/+ or p53−/− cells. Briefly: Determination of p53 status dependency. The settings on record: HCT116 p53+/+ vs p53−/−, 72 hours, viable cell numbers. As to the method: as §1
In test [3] the test system is p-p53 (Ser15). Briefly: Western Blot for p-p53 (Ser15) in HCT116 cells. The settings on record: HCT116, 24 and 48 hours, 1 µM (control). As for the experimental part:
Treated cells were directly lysed in NP40 cell lysis buffer (Invitrogen, Grand Island, NY, USA) containing protease and phosphatase inhibitors. Protein concentrations were measured colorimetrically (DC Protein Assay, Bio-Rad Laboratories, Hercules, CA, USA). Proteins were separated by SDS - polyacrylamide gel electrophoresis and blotted onto nitrocellulose membranes (Whatman™, Vienna, AUT). Equal loading was checked by Ponceau S (SERVA, Heidelberg, GER) staining. Bound antigen was visualized with the enhanced chemiluminescence detection system (Roche Diagnostics, Indianapolis, IN, USA). These procedures were performed according to the manufacturer’s protocols. Antibodies specific for the following proteins of interest were used: pChk1 (Ser296), p-p53 (Ser15), β-Tubulin and GAPDH were obtained from Cell Signaling Technology (Danvers, MA, USA) at 1∶1000 dilution. Secondary antibodies were peroxidase-tagged goat anti-rabbit or anti-mouse IgGs (Cell Signaling Technology) (1∶2000).
(In general: A western blot detects proteins with antibodies after separation by electrophoresis.)

The test system of a further test is HT-29 cells. Briefly: Flow cytometric cell cycle analysis. To be noted: HT-29, 24 hours. As to the method:
(§2) HT-29, HeLa and HCT116 cells were plated in 6-well plates. […] CPT was used at 50 nM and 1 µM. To analyze the cell cycle distribution, cells were collected after 24 hours of incubation and washed with PBS. Cells were fixed in 70% ethanol for at least 2 hours. For analysis, cells were transferred into PBS, incubated with RNAse A (0.04 µg/ml final concentration) for 30 minutes at 37°C, treated with […] propidium iodide for 30 min at 4°C and then analyzed by flow cytometry using BD FACScan (Becton, Dickinson and Company, Franklin Lakes, NJ, USA). The resulting DNA histograms were quantified using ModFit LT (Verity Software House, Topsham, ME, USA).

Test [4] deals with HeLa cells. Description: Flow cytometric cell cycle analysis. To be noted: 24 hours. As to the method:
as §2
In general terms: A flow cytometer gives signals particle by particle.

Test [5] concerns HCT116 cells. Description: Flow cytometric cell cycle analysis. To be noted: HCT116, 24 hours. As for the experimental part:
as §2

Test [6] deals with HeLa cells. Description: DNA replication rate (BrdU incorporation ELISA). To be noted: 24 hours treatment then 24 hours in normal growth medium. As for the experimental part: (§3) HeLa and HCT116 cells were plated in black 96-well plates. After cells were allowed to recover for 24 hours NVX-412 or CPT was added in fresh growth medium. After 24 hours of incubation a chemiluminescent BrdU Incorporation ELISA (Roche Applied Science, Penzberg, Germany) was performed with half of the plates according to the manufacturer’s protocol. Cells in the remaining plates were allowed to recover for 24 hours in normal growth medium before DNA replication was measured (wash-out experiment). To check whether a possible decline in DNA replication rate is not simply due to lower cell numbers because of cell death induction, the proportion of viable cells was determined in parallel by a MTT-based cytotoxicity assay according to the manufacturer’s protocol (EZ4U, Biomedica, Vienna, Austria). Colorimetric (at 492 and 620 nm) and chemiluminescent measurements were performed using a FLUOstar OPTIMA (BMG Labtech, Ortenberg, Germany).

Test [7] concerns HCT116 cells. Description: DNA replication rate (BrdU incorporation ELISA). The settings on record: HCT116, 24 hours treatment then 24 hours in normal growth medium. As for the experimental part:
as §3

In another test the test system is γH2AX (Ser139). Briefly: Immunofluorescence staining and quantification of γH2AX in HeLa cells. As to the method:
(§4) HCT116 and HeLa cells were seeded on glass cover slips in 6-well plates. 24 hours after plating, HCT116 cells were incubated with 0.15, 0.5 and 1 µM NVX-412 and 1 µM CPT for 24 hours for staining of p-p53. For investigating γH2AX, HeLa cells were incubated with 0.21, 0.5 and 1 µM NVX-412 and 1 µM CPT for 3 or 24 hours. Additionally, cells were allowed to recover for 24 hours in normal growth medium after 24 hours of incubation with NVX-412 or CPT (wash-out experiment). After the respective treatments, cells were washed and fixed with 4% methanol-free formaldehyde (Polysciences Inc. Warrington, PA, USA) for 15 minutes at room temperature and then permeabilized with 0.2% Triton X-100/PBS for 2 minutes at room temperature. After blocking with goat serum (5%) in 1% BSA/0.3% Triton X-100/PBS, the respective primary antibody was added and cells were incubated at 4°C overnight. Antibodies used were: mouse p-p53 (Ser15) (Cell Signaling Technology, Danvers, MA, USA) at 1∶100 dilution and mouse p-H2AX (Ser139) (Millipore, Billerica, MA, USA) at 1∶1000 dilution in 1% BSA/PBS, respectively. Cells were then washed 3 times for 10 minutes with 0.25% BSA/0.1% Triton X-100/PBS and incubated with the Alexa Fluor 488 conjugated secondary anti-mouse antibody (1∶1000 in 0.25% BSA/0.1% Triton X-100/PBS) for 1 hour at room temperature in the dark. Cells were washed 3 times for 10 minutes with 0.05% Tween-20/PBS containing Hoechst 33342 (Sigma Aldrich, Vienna, AUT) and mounted with mounting medium (Fluoprep, bioMérieux, Marcy l'Etoile, FRA). Fluorescence was immediately recorded on a Zeiss LSM700 laser scanning microscope.
The common procedure for assessing γH2AX induction is to count γH2AX foci. Since with NVX-412 and the positive control CPT γH2AX activation was that strong, no distinguishable and countable foci were seen. Therefore, the average γH2AX fluorescence intensity per nucleus was determined. To this end, γH2AX intensities within a certain field were measured using Quantity One –4.6.9 (Basic freeware version, Bio-Rad Laboratories, Hercules, CA, USA) and were divided by the number of nuclei in this field.

In test [8] the test system is p-p53 (Ser15). Description: Immunofluorescence staining of p-p53 (Ser15) in HCT116 cells. The settings on record: HCT116, 24 hours, 1 µM (positive control). As for the experimental part: as §4

The structures appear in SMILES notation.

Regarding `COc1ccc(C2=N[C@@H](c3ccc(Cl)cc3)[C@@H](c3ccc(Cl)cc3)N2C(=O)N2CCNC(=O)C2)c(OC(C)C)c1` [Nutlin-3, reference compound], the “p53 status dependency of sensitivity” value in test [1] and in test [2] was “p53+/+ cells being much more sensitive than p53−/− cells” throughout.

On to `CC[C@@]1(O)C(=O)OCc2c1cc1n(c2=O)Cc2cc3ccccc3nc2-1` [CPT, (S)-(+)-Camptothecin, reference compound], for which the “Phosphorylated p53 (Western Blot)” value in the test with p-p53 (Ser15) [3] is given as “strong induction”. The Cell cycle distribution entry with HT-29 cells (50 nM) was “G2/M arrest”; with HT-29 cells (1 µM), “S-phase arrest”; with HeLa cells [4] (50 nM), “G2/M arrest”; with HeLa cells [4] (1 µM), “S-phase arrest”; in the test on HCT116 cells [5] (50 nM) it was “G2/M-phase arrest”; with HCT116 cells [5] (1 µM), “most of the cells were already dead”. In addition, the “DNA replication rate after recovery (wash-out)” value with HeLa cells [6] and in the test with HCT116 cells [7] was “a recovery was only observed at the lowest concentration tested” each time. In addition, in the test on γH2AX (Ser139) (3 hours), the γH2AX induction result was “Only a slight induction of γH2AX”. Also, the “γH2AX levels after recovery (wash-out)” value in the test on γH2AX (Ser139) (24 hours treatment then 24 hours without drug) is given as “not reversible”. Further, the “p-p53 (Ser15) immunofluorescence staining” value in the test on p-p53 (Ser15) [8] is on record as “positive for nuclear staining of p-p53 (Ser15)”.

The values are drawn from article PMC3441706 (PLoS ONE, 2012).
